Reference: patent US20050203127A1, “2-(Phenyl)-2h-pyrazole-3-carboxylic acid-n-4-(thioxo-heterocyclyl)-phenyl-amide derivatives and corresponding imino-heterocyclyl derivatives and relates compounds for use as inhibitors of the coagulation factors xa and/or viia for treating thromboses” (priority 2002, published 2005)

Columns and labels:
[1] = molecular target: factor Xa (Homo sapiens, UniProt P00742); test: Factor Xa inhibition (FXa-IC50); format: biochemical
Excerpt: The inhibition of factor Xa by the compounds according to the invention and the measurement of the anticoagulant and antithrombotic activity can be determined by conventional in-vitro or in-vivo methods. A suitable method is described, for example, by J. Hauptmann et al. in Thrombosis and Haemostasis 1990, 63, 220-223.
The inhibition of factor Xa can be measured, for example by the method of T. Hara et al. in Thromb. Haemostas. 1994, 71, 314-319.

[2] = molecular target: TF/FVIIa (Homo sapiens, UniProt P08709); test: TF/factor VIIa inhibition (TF/FVIIa-IC50); format: biochemical
Sequence of TF/FVIIa (P08709 213-466 limits assumed): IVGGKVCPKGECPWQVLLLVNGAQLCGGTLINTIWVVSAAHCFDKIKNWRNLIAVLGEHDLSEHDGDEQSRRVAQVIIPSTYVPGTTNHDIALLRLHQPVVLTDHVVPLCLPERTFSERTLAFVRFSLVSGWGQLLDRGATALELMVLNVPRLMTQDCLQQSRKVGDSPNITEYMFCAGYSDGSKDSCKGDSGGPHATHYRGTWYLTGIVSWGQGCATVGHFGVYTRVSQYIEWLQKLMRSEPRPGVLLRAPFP
Sequence of TF/FVIIa (P08709 61-212 limits assumed): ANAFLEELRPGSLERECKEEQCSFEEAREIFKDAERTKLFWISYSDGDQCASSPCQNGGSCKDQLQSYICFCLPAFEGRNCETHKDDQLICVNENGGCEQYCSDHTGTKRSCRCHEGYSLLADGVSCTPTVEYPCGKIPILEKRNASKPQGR
Sequence of TF/FVIIa (P13726 33-295 partner): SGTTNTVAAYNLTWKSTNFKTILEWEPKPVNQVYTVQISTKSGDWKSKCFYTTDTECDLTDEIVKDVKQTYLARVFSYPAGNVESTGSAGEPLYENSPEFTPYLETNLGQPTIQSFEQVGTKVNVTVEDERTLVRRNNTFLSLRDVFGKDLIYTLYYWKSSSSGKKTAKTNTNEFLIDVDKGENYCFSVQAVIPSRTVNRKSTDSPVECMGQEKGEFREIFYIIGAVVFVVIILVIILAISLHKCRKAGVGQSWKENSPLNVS
Excerpt: The inhibition of factor VIIa by the compounds according to the invention and the measurement of the anticoagulant and antithrombotic activity can be determined by conventional in-vitro or in-vivo methods. A conventional method for the measurement of the inhibition of factor VIIa is described, for example, by H. F. Ronning et al. in Thrombosis Research 1996, 84, 73-81.

Sequence of factor Xa (P00742 235-488 limits assumed): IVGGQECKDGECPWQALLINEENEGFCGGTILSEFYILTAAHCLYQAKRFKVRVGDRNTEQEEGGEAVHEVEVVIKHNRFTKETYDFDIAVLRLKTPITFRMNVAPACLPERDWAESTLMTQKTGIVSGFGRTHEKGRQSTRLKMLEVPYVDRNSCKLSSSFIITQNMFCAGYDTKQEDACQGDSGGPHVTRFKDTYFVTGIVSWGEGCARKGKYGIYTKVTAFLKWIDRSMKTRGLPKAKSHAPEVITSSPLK
Sequence of factor Xa (P00742 41-179 limits assumed): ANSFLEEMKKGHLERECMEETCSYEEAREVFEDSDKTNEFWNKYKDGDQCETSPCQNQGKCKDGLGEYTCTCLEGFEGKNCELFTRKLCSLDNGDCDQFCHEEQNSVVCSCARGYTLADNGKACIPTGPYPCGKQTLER

| IC50 [1] | IC50 [2] | SMILES |
| --- | --- | --- |
| 330 nM | 180 nM | NC(=O)c1cccc(-n2nc(C(F)(F)F)cc2C(=O)Nc2ccc(N3CCCC3=S)c(Cl)c2)c1 [BB, N-[3-chloro-4-(2-thioxopyrrolidin-1-yl)phenyl]-2-(3-aminocarbonylphenyl)-5-trifluoromethyl-2H-pyrazole-3-carboxamide] |
| 200 nM | 69 nM | N#CN=C1NCCN1c1ccc(NC(=O)c2cc(C(F)(F)F)nn2-c2cccc(C(N)=O)c2)cc1 [CA, N-[4-(2-cyanoiminoimidazolidin-1-yl)phenyl]-2-(3-aminocarbonylphenyl)-5-trifluoromethyl-2H-pyrazole-3-carboxamide] |
| 9.6 nM | 23 nM | N=C1CCCN1c1ccc(NC(=O)c2cc(C(F)(F)F)nn2-c2cccc(CN)c2)cc1 [AA, N-[4-(2-iminopyrrolidin-1-yl)phenyl]-2-(3-aminomethylphenyl)-5-trifluoromethyl-2H-pyrazole-3-carboxamide] |
| 92 nM | 150 nM | CCc1nn(-c2ccc(NC(=O)c3cc(C(F)(F)F)nn3-c3cccc(C(N)=O)c3)cc2)c(=N)s1 [CB, N-[4-(2-imino-5-ethyl-3H-1,3,4-thiadiazol-3-yl)phenyl]-2-(3-aminocarbonylphenyl)-5-trifluoromethyl-2H-pyrazole-3-carboxamide] |
